Assays:
[1] = biological target: T1, Mcl-1 protein (residues 171-323) (Homo sapiens, UniProt Q07820); test: Inhibition of Mcl-1 by fluorescence polarization (FP) competitive binding assay with FAM-Bid tracer; conditions: 2 nM FAM-Bid, 20 nM Mcl-1, 30 min
T1 construct: Tag-free Mcl-1 protein (residues 171-323) was used in the FP assay
Procedure, shortened: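 Tag-free Mcl-1 (20 nM) with 2 nM FAM-Bid peptide in PBS, 0.01% BGG, 0.01% Triton X-100, 5% DMSO, 30 min at room temperature. FP read at Ex 485/Em 528 nm. IC50 from 10-point curves normalised to DMSO and no-protein controls.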

OPM-2 cells = test: Cell viability assay (OPM-2 cells), CCK-8; format: cell-based; conditions: Homo sapiens, OPM-2, 24 h, 5% FBS
Procedure, shortened: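 OPM-2 myeloma cells (20000/well) exposed to serially diluted compound for 24 h at 37 °C, 5% CO2, then incubated 4 h with CCK-8 and read at 450 nm. Readings normalized to vehicle; IC50 from nonlinear regression.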

NCI-H929 cells = test: Cell viability assay (NCI-H929 cells), CCK-8; format: cell-based; conditions: Homo sapiens, NCI-H929, 24 h, 5% FBS
Procedure, shortened: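 NCI-H929 cells from ATCC were seeded at 20000 cells/well in 95 μL of culture medium in 96-well plates and grown for 4 hrs. Compounds, serially diluted in DMSO and further diluted in medium, were added as 5 μL, and cells were incubated for 24 hrs at 37° C. with 5% CO2. Viability was measured with CCK-8.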

T1 sequence (Q07820 171-323): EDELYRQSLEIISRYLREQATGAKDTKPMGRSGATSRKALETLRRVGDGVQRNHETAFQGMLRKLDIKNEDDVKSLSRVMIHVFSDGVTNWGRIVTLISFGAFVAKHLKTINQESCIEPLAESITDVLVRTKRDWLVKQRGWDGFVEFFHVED

| Structure (SMILES) | IC50 [1] | IC50 (NCI-H929 cells) | IC50 (OPM-2 cells) |
| --- | --- | --- | --- |
| CC(C)OC(=O)CO[C@H]1C2=C[C@@H](C2)[C@H](C)[C@@H](C)S(=O)(=O)NC(=O)c2ccc3c(c2)N(C[C@@H]2CC[C@H]21)C[C@@]1(CCCc2c1ccc(Cl)c2F)CO3 [compound 73, isopropyl 2-(((1S,11′R,12′S,13′R,16′R,16a′R,18a′R,E)-6-chloro-5-fluoro-11′,12′-dimethyl-10′,10′-dioxido-8′-oxo-3,4,8′,9′,12′,13′,16′,16a′,17′,18′,18a′,19′-dodecahydro-1′H,2H,3′H,11′H-spiro[naphthalene-1,2′-[5,7]etheno[13,15]methanocyclobuta[i][1,4]oxazepino[3,4-f][1]thia[2,7]diazacyclohexadecin]-16′-yl)oxy)acetate] | 0.019 µM | 0.15 µM | 0.067 µM |
| C[C@@H]1[C@@H](C)S(=O)(=O)NC(=O)c2ccc3c(c2)N(C[C@@H]2CC[C@H]2[C@@H](OCC(=O)O)C2=C[C@H]1C2)C[C@@]1(CCCc2c1ccc(Cl)c2F)CO3 [compound 74, 2-(((1S,11′R,12′S,13′R,16′R,16a′R,18a′R,E)-6-chloro-5-fluoro-11′,12′-dimethyl-10′,10′-dioxido-8′-oxo-3,4,8′,9′,12′,13′,16′,16a′,17′,18′,18a′,19′-dodecahydro-1′H,2H,3′H,11′H-spiro[naphthalene-1,2′-[5,7]etheno[13,15]methanocyclobuta[i][1,4]oxazepino[3,4-f][1]thia[2,7]diazacyclohexadecin]-16′-yl)oxy)acetic acid] | 0.02 µM | 0.45 µM | 0.384 µM |
| COC1CCN(CCO[C@H]2C3=C[C@@H](C3)[C@H](C)[C@@H](C)S(=O)(=O)NC(=O)c3ccc4c(c3)N(C[C@@H]3CC[C@H]32)C[C@@]2(CCCc3c2ccc(Cl)c3F)CO4)CC1 [compound 75, (1S,11′R,12′S,13′R,16′R,16a′R,18a′R,E)-6-chloro-5-fluoro-16′-(2-(4-methoxypiperidin-1-yl)ethoxy)-11′,12′-dimethyl-3,4,12′,13′,16′,16a′,17′,18′,18a′,19′-decahydro-1′H,2H,3′H,11′H-spiro[naphthalene-1,2′-[5,7]etheno[13,15]methanocyclobuta[i][1,4]oxazepino[3,4-f][1]thia[2,7]diazacyclohexadecin]-8′(9′H)-one 10′,10′-dioxide] | 0.036 µM | 0.051 µM | 0.041 µM |
| C[C@@H]1[C@@H](C)S(=O)(=O)NC(=O)c2ccc3c(c2)N(C[C@@H]2CC[C@H]2[C@@H](OCCN2CCN(S(C)(=O)=O)CC2)C2=C[C@H]1C2)C[C@@]1(CCCc2c1ccc(Cl)c2F)CO3 [compound 76, (1S,11′R,12′5,13′R,16′R,16a′R,18a′R,E)-6-chloro-5-fluoro-11′,12′-dimethyl-16′-(2-(4-(methylsulfonyl)piperazin-1-yl)ethoxy)-3,4,12′,13′,16′,16a′,17′,18′,18a′,19′-decahydro-1′H,2H,3′H,11′H-spiro[naphthalene-1,2′-[5,7]etheno[13,15]methanocyclobuta[i][1,4]oxazepino[3,4-f][1]thia[2,7]diazacyclohexadecin]-8′(9′H)-one 10′,10′-dioxide] | 0.021 µM | 0.037 µM | 0.206 µM |
| CNCCO[C@H]1C2=C[C@@H](C2)[C@H](C)[C@@H](C)S(=O)(=O)NC(=O)c2ccc3c(c2)N(C[C@@H]2CC[C@H]21)C[C@@]1(CCCc2c1ccc(Cl)c2F)CO3 [compound 78, (1S,11′R,12′S,13′R,16′R,16a′R,18a′R,E)-6-chloro-5-fluoro-11′,12′-dimethyl-16′-(2-(methylamino)ethoxy)-3,4,12′,13′,16′,16a′,17′,18′,18a′,19′-decahydro-1′H,2H,3′H, 11′H-spiro[naphthalene-1,2′-[5,7]etheno[13,15]methanocyclobuta[i][1,4]oxazepino[3,4-f][1]thia[2,7]diazacyclohexadecin]-8′(9′H)-one 10′,10′-dioxide] | 0.016 µM | 0.066 µM | 0.184 µM |
| C[C@@H]1[C@@H](C)S(=O)(=O)NC(=O)c2ccc3c(c2)N(C[C@@H]2CC[C@H]2[C@@H](OCCN(C)S(C)(=O)=O)C2=C[C@H]1C2)C[C@@]1(CCCc2c1ccc(Cl)c2F)CO3 [compound 79, N-(2-(((1S,11′R,12′S,13′R,16′R,16a′R,18a′R,E)-6-chloro-5-fluoro-11′,12′-dimethyl-10′,10′-dioxido-8′-oxo-3,4,8′,9′,12′,13′,16′,16a′,17′,18′,18a′,19′-dodecahydro-1′H,2H,3′H, 11′H-spiro[naphthalene-1,2′-[5,7]etheno[13,15]methanocyclobuta[i][1,4]oxazepino[3,4-f][1]thia[2,7]diazacyclohexadecin]-16′-yl)oxy)ethyl)-N-methylmethanesulfonamide] | 0.015 µM | 0.058 µM | 0.053 µM |

Compounds with a lower IC50 [1], results first:

| IC50 [1] | IC50 (NCI-H929 cells) | Structure (SMILES) | IC50 (OPM-2 cells) |
| --- | --- | --- | --- |
| 0.014 µM | 0.081 µM | C[C@@H]1[C@@H](C)S(=O)(=O)NC(=O)c2ccc3c(c2)N(C[C@@H]2CC[C@H]2[C@@H](OCC(=O)N2CCN(C)CC2)C2=C[C@H]1C2)C[C@@]1(CCCc2c1ccc(Cl)c2F)CO3 [compound 70, (1S,11′R,12′S,13′R,16′R,16a′R,18a′R,E)-6-chloro-5-fluoro-11′,12′-dimethyl-16′-(2-(4-methylpiperazin-1-yl)-2-oxoethoxy)-3,4,12′,13′,16′,16a′,17′,18′,18a′,19′-decahydro-1′H,2H,3′H, 11′H-spiro[naphthalene-1,2′-[5,7]etheno[13,15]methanocyclobuta[i][1,4]oxazepino[3,4-f][1]thia[2,7]diazacyclohexadecin]-8′(9′H)-one 10′,10′-dioxide] | 0.035 µM |
| 0.014 µM | 0.07 µM | CCOC(=O)CO[C@H]1C2=C[C@@H](C2)[C@H](C)[C@@H](C)S(=O)(=O)NC(=O)c2ccc3c(c2)N(C[C@@H]2CC[C@H]21)C[C@@]1(CCCc2c1ccc(Cl)c2F)CO3 [compound 72, ethyl 2-(((1S,11′R,12′S,13′R,16′R,16a′R,18a′R,E)-6-chloro-5-fluoro-11′,12′-dimethyl-10′,10′-dioxido-8′-oxo-3,4,8′,9′,12′,13′,16′,16a′,17′,18′,18a′,19′-dodecahydro-1′H,2H,3′H,11′H-spiro[naphthalene-1,2′-[5,7]etheno[13,15]methanocyclobuta[i][1,4]oxazepino[3,4-f][1]thia[2,7]diazacyclohexadecin]-16′-yl)oxy)acetate] | 0.089 µM |
| 0.013 µM | 0.006 µM | C[C@@H]1[C@@H](C)S(=O)(=O)NC(=O)c2ccc3c(c2)N(C[C@@H]2CC[C@H]2[C@@H](OCC2CCN(C)CC2)C2=C[C@H]1C2)C[C@@]1(CCCc2c1ccc(Cl)c2F)CO3 [compound 71] | 0.081 µM |
| 0.0085 µM | 0.0053 µM | C[C@@H]1[C@@H](C)S(=O)(=O)NC(=O)c2ccc3c(c2)N(C[C@@H]2CC[C@H]2[C@@H](OCCN(C)C)C2=C[C@H]1C2)C[C@@]1(CCCc2c1ccc(Cl)c2F)CO3 [compound 77, (1S,11′R,12′S,13′R,16′R,16a′R,18a′R,E)-6-chloro-16′-(2-(dimethylamino)ethoxy)-5-fluoro-11′,12′-dimethyl-3,4,12′,13′,16′,16a′,17′,18′,18a′,19′-decahydro-1′H,2H,3′H,1 PH-spiro[naphthalene-1,2′-[5,7]etheno[13,15]methanocyclobuta[i][1,4]oxazepino[3,4-f][1]thia[2,7]diazacyclohexadecin]-8′(9′H)-one 10′,10′-dioxide] | 0.068 µM |

Reference: patent US11498928B2, “Macrocyclic spiroethers as Mcl-1 inhibitors” (ASCENTAGE PHARMA (SUZHOU) CO., LTD., priority 2019, dated 2022)
